Measurements published in US12486254B2, “Uracil derivatives for stimulating read-through of premature termination codons” (Southern Research Institute, priority 2022, dated 2025).

system: W134X-CF#14 FRT; test: Read-through of a premature termination codon, W134X-CF#14 FRT data, with G418; format: cell-based; conditions: in presence of G418
Method: (§1) The compounds shown in Table 1 were evaluated for their ability to stimulate read-through of a premature termination codon, and their respective activities are shown in Tables 2 and 3 below.

SMILES | EC50 [µM]
CCn1c(=O)c(C(=O)CN(C)CC(N)=O)c(N)n(Cc2ccccc2)c1=O [1.41] | 157
Cn1c(=O)c(C(=O)CN2CCN(c3ccccc3F)CC2)c(N)n(Cc2ccccc2)c1=O [1.43] | 49.3
CC(C)n1c(=O)c(C(=O)CN2CCCCC2C(N)=O)c(N)n(Cc2ccccc2)c1=O (centres unmarked) [1.44] | 22.7
NC(=O)C1CCCCN1CC(=O)c1c(N)n(Cc2ccccc2)c(=O)n(C2CC2)c1=O (centres unmarked) [1.45] | ≥ 100
NC(=O)C1CCCCN1CC(=O)c1c(N)n(C2CC2)c(=O)n(Cc2ccccc2)c1=O (centres unmarked) [1.46] | ≥ 100
CCn1c(=O)c(C(=O)CN2CCCCC2C(=O)OC)c(N)n(Cc2ccccc2)c1=O (centres unmarked) [1.68] | 19.7
CCn1c(=O)c(C(=O)CN2CCCCC2C(=O)NC(C)(C)C)c(N)n(Cc2ccccc2)c1=O (centres unmarked) [1.79] | 49.3
CCNC(=O)C1CCCCN1CC(=O)c1c(N)n(Cc2ccccc2)c(=O)n(CC)c1=O (centres unmarked) [1.80] | 3.89
CCn1c(=O)c(C(=O)CN2CCCCC2C(N)=O)c(N)n(CC2CCCCC2)c1=O (centres unmarked) [1.84] | 48.2
CCn1c(=O)c(C(=O)CN2CCCCC2C(=O)N2CCCC2)c(N)n(Cc2ccccc2)c1=O (centres unmarked) [1.85] | 28.1
NC(=O)C1CCCCN1CC(=O)c1c(N)n(Cc2cccc(F)c2)c(=O)n(Cc2cccc(F)c2)c1=O (centres unmarked) [1.95] | 21.1
CN(C)C(=O)C1CCCCN1CC(=O)c1c(N)n(Cc2cccs2)c(=O)n(Cc2cccs2)c1=O (centres unmarked) [1.102] | 6.2
COc1ccccc1Cn1c(N)c(C(=O)CN2CCCCC2C(N)=O)c(=O)n(Cc2ccccc2OC)c1=O (centres unmarked) [1.110] | 25
CCn1c(=O)c(C(=O)CN(CC(N)=O)C(C)C)c(N)n(Cc2cccs2)c1=O [1.111] | 5.19
COc1cccc(Cn2c(N)c(C(=O)CN3CCCCC3C(N)=O)c(=O)n(Cc3cccc(OC)c3)c2=O)c1 (centres unmarked) [1.116] | 23.9
CCn1c(=O)c(C(=O)CN2CCCCC2C(N)=O)c(N)n(Cc2cccc(C)c2)c1=O (centres unmarked) [1.119] | 13.3
CCn1c(=O)c(C(=O)CN2CCCC2C(=O)N2CCOCC2)c(N)n(Cc2ccccc2)c1=O (centres unmarked) [1.121] | 61.3
CCn1c(=O)c(C(=O)CN2CCCCC2C(N)=O)c(N)n(Cc2cccc(F)c2)c1=O (centres unmarked) [1.134] | 17.4

SMILES | EC50 [µM]
CCn1c(=O)c(C(=O)CN2CCCCC2C(=O)NCc2ccccc2C)c(N)n(Cc2ccccc2)c1=O (centres unmarked) [1.135] | 13.5
CCn1c(=O)c(C(=O)CN2CCCCC2C(=O)NCCc2ccccc2)c(N)n(Cc2ccccc2)c1=O (centres unmarked) [1.136] | 8.25
CCn1c(=O)c(C(=O)CN2CCCCC2C(=O)N2CCc3ccccc3C2)c(N)n(Cc2ccccc2)c1=O (centres unmarked) [1.141] | 12.9
CCn1c(=O)c(C(=O)CN2CCCC[C@@H]2C(=O)NCc2ccccc2F)c(N)n(Cc2ccccc2)c1=O [1.142] | 13.1
CCn1c(=O)c(C(=O)CN2CCCC[C@@H]2C(=O)N2CCc3ccccc3C2)c(N)n(Cc2ccccc2)c1=O [1.143] | 6.48
CCn1c(=O)c(C(=O)CN2CCCC[C@@H]2C(=O)NCc2cccc(F)c2)c(N)n(Cc2ccccc2)c1=O [1.144] | 9.35
CCn1c(=O)c(C(=O)CN2CCCCC2C(N)=O)c(N)n(Cc2ccc(F)cc2F)c1=O (centres unmarked) [1.146] | 8.5
CCn1c(=O)c(C(=O)CN2CCCCC2C(N)=O)c(N)n(Cc2ccc(F)cc2OC)c1=O (centres unmarked) [1.154] | 68.5
NC(=O)C1CCCCN1CC(=O)c1c(N)n(CC2CCC2)c(=O)n(Cc2ccc(F)cc2)c1=O (centres unmarked) [1.160] | 28.4
CCn1c(=O)c(C(=O)CN2CCCCC2C(N)=O)c(N)n(Cc2ccc(F)c(C)c2)c1=O (centres unmarked) [1.163] | 8.05
CCn1c(=O)c(C(=O)CN(CC(N)=O)C(C)C)c(N)n(Cc2ccc(F)c(OC)c2)c1=O [1.170] | ≥ 100
CCn1c(=O)c(C(=O)CN2CCCC[C@@H]2C(N)=O)c(N)n(Cc2ccc(C(F)(F)F)cc2)c1=O [1.178] | 21.2
CCn1c(=O)c(C(=O)CN2CCCC[C@@H]2C(=O)NCc2ccc(F)cc2)c(N)n(Cc2ccc(F)cc2)c1=O [1.189] | 2.56
CCn1c(=O)c(C(=O)CN2CCCC[C@@H]2C(=O)NCC(F)(F)F)c(N)n(Cc2ccc(F)cc2)c1=O [1.197] | 3.91
CCC(C)C1CCCCN1CC(=O)c1c(N)n(Cc2ccc(F)cc2)c(=O)n(CC)c1=O (centres unmarked) [1.202] | 5.51
CCn1c(=O)c(C(=O)CN(CCC(N)=O)C(C)C)c(N)n(Cc2ccc(F)cc2)c1=O [1.204] | 12.5
CCn1c(=O)c(C(=O)CN2CCCCC2C2CCC2)c(N)n(Cc2ccc(F)cc2)c1=O (centres unmarked) [1.210] | 6.68

Further lines, results first:

EC50 [µM] | SMILES
174 | CCn1c(=O)c(C(=O)CNC2CCCCC2)c(N)n(Cc2ccccc2)c1=O [1.13]
43.2 | CC(C)N(CC(N)=O)CC(=O)c1c(N)n(Cc2ccccc2)c(=O)n(C)c1=O [1.21]
155 | CCn1c(=O)c(C(=O)CN(CCNC(=O)OC(C)(C)C)C(C)C)c(N)n(Cc2ccccc2)c1=O [1.26]
72.3 | CCn1c(=O)c(C(=O)CN(CC(N)=O)C(C)(C)C)c(N)n(Cc2ccccc2)c1=O [1.32]
53 | CCn1c(=O)c(C(=O)CN2CCC[C@@H]2C(N)=O)c(N)n(Cc2ccccc2)c1=O [1.34]
12.9 | CCN(CC(=O)c1c(N)n(Cc2ccccc2)c(=O)n(CC)c1=O)CC(=O)c1c(N)n(Cc2ccccc2)c(=O)n(CC)c1=O [1.37]
11.9 | CCn1c(=O)c(C(=O)CN(C)CC(=O)c2c(N)n(Cc3ccccc3)c(=O)n(CC)c2=O)c(N)n(Cc2ccccc2)c1=O [1.38]
59.4 | CCn1c(=O)c(C(=O)CN2CCCC[C@H]2C(N)=O)c(N)n(Cc2ccccc2)c1=O [1.49]
≥ 100 | CCn1c(=O)c(C(=O)CN2CCN(C(=O)OC(C)(C)C)CC2C(N)=O)c(N)n(Cc2ccccc2)c1=O (centres unmarked) [1.52]
32.3 | CC1Cc2ccccc2N1CC(=O)c1c(N)n(Cc2ccccc2)c(=O)n(C)c1=O (centres unmarked) [1.61]
79.9 | CCn1c(=O)c(C(=O)CN2CCCC2c2cccn2C)c(N)n(Cc2ccccc2)c1=O (centres unmarked) [1.63]
27.9 | CCn1c(=O)c(C(=O)CN2CCCCC2C(=O)NC(C)C)c(N)n(Cc2ccccc2)c1=O (centres unmarked) [1.70]
70.4 | CCn1c(=O)c(C(=O)CN(C(C)C)C(C)C(N)=O)c(N)n(Cc2ccccc2)c1=O (centres unmarked) [1.71]
28 | CC(C)Cn1c(=O)c(C(=O)CN2CCCCC2C(N)=O)c(N)n(Cc2ccccc2)c1=O (centres unmarked) [1.75]
31.2 | CCN(CC(=O)c1c(N)n(Cc2ccccc2)c(=O)n(CC)c1=O)C(C(N)=O)C(C)C (centres unmarked) [1.77]
3.92 | CCN(CC)C(=O)C1CCCCN1CC(=O)c1c(N)n(Cc2ccccc2)c(=O)n(CC)c1=O (centres unmarked) [1.81]
53.8 | CCn1c(=O)c(C(=O)CN2CCCCC2C(=O)N(C(C)C)C(C)C)c(N)n(Cc2ccccc2)c1=O (centres unmarked) [1.88]
24.2 | NC(=O)C1CCCCN1CC(=O)c1c(N)n(Cc2ccccc2F)c(=O)n(Cc2ccccc2F)c1=O (centres unmarked) [1.92]
62.5 | CCn1c(=O)c(C(=O)CN2CCCCC2C(=O)Nc2ccccc2)c(N)n(Cc2ccccc2)c1=O (centres unmarked) [1.97]
43.1 | CCn1c(=O)c(C(=O)CN2CCCC2C(=O)N(C)C)c(N)n(Cc2ccccc2)c1=O (centres unmarked) [1.98]
28.3 | CCN(CC)C(=O)C1CCCN1CC(=O)c1c(N)n(Cc2ccccc2)c(=O)n(CC)c1=O (centres unmarked) [1.99]
16.5 | CC(C)N(CC(N)=O)CC(=O)c1c(N)n(Cc2cccs2)c(=O)n(Cc2cccs2)c1=O [1.100]

EC50 [µM] | SMILES
12.8 | NC(=O)C1CCCCN1CC(=O)c1c(N)n(Cc2cccs2)c(=O)n(Cc2cccs2)c1=O (centres unmarked) [1.101]
25 | Cc1ccccc1Cn1c(N)c(C(=O)CN2CCCCC2C(N)=O)c(=O)n(Cc2ccccc2C)c1=O (centres unmarked) [1.108]
7.47 | Cc1cccc(Cn2c(N)c(C(=O)CN3CCCCC3C(N)=O)c(=O)n(Cc3cccc(C)c3)c2=O)c1 (centres unmarked) [1.109]
18.1 | Cc1ccc(Cn2c(N)c(C(=O)CN3CCCCC3C(N)=O)c(=O)n(Cc3ccc(C)cc3)c2=O)cc1 (centres unmarked) [1.114]
31.9 | COc1ccc(Cn2c(N)c(C(=O)CN3CCCCC3C(N)=O)c(=O)n(Cc3ccc(OC)cc3)c2=O)cc1 (centres unmarked) [1.115]
30.4 | CCn1c(=O)c(C(=O)CN2CCCC2C(=O)N2CCCCC2)c(N)n(Cc2ccccc2)c1=O (centres unmarked) [1.122]
24.1 | CCn1c(=O)c(C(=O)CN2CCCC2C(=O)NCc2ccccc2)c(N)n(Cc2ccccc2)c1=O (centres unmarked) [1.124]
5.08 | CCn1c(=O)c(C(=O)CN2CCCCC2C(N)=O)c(N)n(Cc2ccccc2F)c1=O (centres unmarked) [1.137]
52.5 | CCn1c(=O)c(C(=O)CN2CCCCC2C(N)=O)c(N)n(Cc2ccc(F)c(F)c2)c1=O (centres unmarked) [1.147]
64.8 | CCn1c(=O)c(C(=O)CN(CC(N)=O)C(C)C)c(N)n(Cc2ccc(F)cc2C)c1=O [1.153]
3.16 | CCn1c(=O)c(C(=O)CN2CCCC[C@@H]2C(=O)NCc2ccc(F)cc2)c(N)n(Cc2ccccc2)c1=O [1.155]
11.4 | CCn1c(=O)c(C(=O)CN2CCCC[C@@H]2C(=O)NCC(C)C)c(N)n(Cc2ccccc2)c1=O [1.156]
19.5 | CCn1c(=O)c(C(=O)CN2CCCC[C@@H]2C(=O)NCC(C)(C)C)c(N)n(Cc2ccccc2)c1=O [1.157]
4.91 | CCn1c(=O)c(C(=O)CN2CCCC[C@@H]2C(=O)NCC(F)(F)F)c(N)n(Cc2ccccc2)c1=O [1.159]
13.9 | CCn1c(=O)c(C(=O)CN2CCCCC2C(N)=O)c(N)n(Cc2ccc(F)cc2C)c1=O (centres unmarked) [1.161]
42.1 | CCn1c(=O)c(C(=O)CN2CCCCC2C(N)=O)c(N)n(Cc2ccc(F)cc2Cl)c1=O (centres unmarked) [1.173]
10.1 | CCOc1ccc(C(C)NCC(=O)c2c(N)n(Cc3ccc(F)cc3)c(=O)n(CC)c2=O)cc1OCC (centres unmarked) [1.179]
47.2 | CCn1c(=O)c(C(=O)CN2CCCCC2)c(N)n(Cc2ccc(F)cc2)c1=O [1.193]
9.5 | CC[C@H]1CCCCN1CC(=O)c1c(N)n(Cc2ccc(F)cc2)c(=O)n(CC)c1=O [1.199]
34.9 | CCn1c(=O)c(C(=O)CN2CCCCC2C)c(N)n(Cc2ccc(F)cc2)c1=O (centres unmarked) [1.200]
11.4 | CCn1c(=O)c(C(=O)CNc2cccc(C(N)=O)c2)c(N)n(Cc2ccc(F)cc2)c1=O [1.208]
10.2 | CCn1c(=O)c(C(=O)CN(CC(=O)OC)C(C)C)c(N)n(Cc2ccc(F)cc2)c1=O [1.213]

system: G542X#10-HBE5x5; test: Read-through of a premature termination codon, G542X#10-HBE5x5 (Table 3); format: cell-based; conditions: with G418
Method: as §1

EC50 [µM] | SMILES
≥ 100 | CCn1c(=O)c(C(=O)CN(CC(N)=O)C(C)C)c(N)n(Cc2ccccc2)c1=O [1.1]
